# In ChEMBL document CHEMBL5034032, “Discovery and Structure-Based Optimization of Fragments Binding the Mixed Lineage Kinase Domain-like Protein Executioner Domain” (J Med Chem, 2021):
# Key:
# [1] = Permeability of compound by PAMPA assay; type: ADME; settings: read-out: permeability
# [2] = target: T1, Mixed lineage kinase domain-like protein (Homo sapiens, UniProt Q8NB16); test: Binding affinity to MLKL N-terminal executioner domain (2 to 154 residues)(unknown origin) assessed as dissociation constant by TROSY-HSQC NMR titration analysis
# T1 sequence (Q8NB16 whole entry): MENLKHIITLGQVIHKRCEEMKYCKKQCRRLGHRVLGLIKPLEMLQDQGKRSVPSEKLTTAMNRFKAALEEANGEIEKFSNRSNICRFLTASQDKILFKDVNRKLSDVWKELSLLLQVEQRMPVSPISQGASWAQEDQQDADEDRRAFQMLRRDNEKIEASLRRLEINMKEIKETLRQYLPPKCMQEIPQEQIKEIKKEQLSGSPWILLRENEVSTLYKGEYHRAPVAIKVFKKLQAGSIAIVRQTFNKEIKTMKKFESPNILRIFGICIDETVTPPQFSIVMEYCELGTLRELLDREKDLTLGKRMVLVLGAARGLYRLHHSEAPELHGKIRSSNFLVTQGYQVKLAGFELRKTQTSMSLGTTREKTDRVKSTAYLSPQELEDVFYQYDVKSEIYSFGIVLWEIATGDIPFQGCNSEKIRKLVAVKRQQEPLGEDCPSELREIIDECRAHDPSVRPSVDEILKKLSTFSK
Papp [1],Kd [2],Compound
0.031 ×10⁻⁶ cm/s,,CO[C@@H](c1ccc(C(C)C)cc1)c1nc2ccc(C(=O)O)cc2[nH]1
,5530 µM,CCCCCCCCCO[C@@H]1O[C@H](CO)[C@@H](O[C@H]2O[C@H](CO)[C@@H](O)[C@H](O)[C@H]2O)[C@H](O)[C@H]1O
,73 µM,COCCOCn1c(S(C)(=O)=O)nc2c1c(=O)n(C)c(=O)n2C
